Data on two compounds can be found in patent publication US5230998A, “Method for the prescreening of drugs targeted to the V3 hypervariable loop of the HIV-1 envelope glycoprotein gp 120” (priority 1991, dated 1993).

Test [1] has as its target T1, control peptide (518-542) (Human immunodeficiency virus type 1 BH10, UniProt P03375).
T1 construct: cut from Env gp160
As to the kind of experiment: Attachment of ATA determined by anti-ATA antibodies (double antibody RIA). The test is classed as binding, HIV-1. To be noted: FIG. 2. The protocol:
Antibodies to ATA were detected by double antibody RIA using wells coated with an ATA-ovalbumin conjugate. This conjugate was prepared in the same way as described for the ATA-BSA conjugate. Dilution endpoints of anti-ATA antibodies, determined as described by Ritchie, D. G., Nickerson, J. M., and Fuller, G. M. (1983), "Two Simple Programs for the Analysis of Data from Enzyme-linked Immunosorbent Assays (ELISA) on a Programmable Desk-top Calculator," Methods in Enzymology, 92, 577-588) of the two antisera were: 1:2,700 and 1:150,000, respectively. The second antiserum was used for subsequent RIA tests.
ATA was also added to a control peptide, (518-542), and to wells coated with gelatin only. After incubation for 4 hours at 20° C., excess ATA was removed, the wells were washed with TS and attached ATA was determined by double-antibody RIA using serial dilutions of the anti-ATA antiserum. Similar tests were carried out with serum from the same rabbit before immunization with the ATA-BSA conjugate; the corresponding results (100-450 cpm) were subtracted from cpm corresponding to RIA results obtained with the anti-ATA antiserum. For additional assays aimed at determining the binding of ATA to synthetic peptides from gp120 and gp41 of HIV-1 BH 10 and to V3 hypervariable loop peptides from 20 additional HIV-1 isolates, anti-ATA antiserum was used at a final dilution of 1:800.

Test [2] addresses T2, HIV-1 IIIB glycoprotein gp120 V3 hypervariable loop (Human immunodeficiency virus type 1 BH10, UniProt P03375).
T2 construct: b180 also mentions the V3 loop peptide
In words: Inhibition of the reaction between HIV-1 IIIB gp120 and three distinct antibodies reacting with the V3 hypervariable loop (FIGS. 8-11). The test is classed as binding. To be noted: 60 μg/ml, metal complexes versus uncomplexed. As to the method: (§1) FIG. 8 is a bar graph depicting the inhibitory effect of chlorine6 (60 μg/ml) and metal chelates thereof on the reaction between HIV-1 IIIB glycoprotein gp120 and three distinct antibodies reacting with the V3 hypervariable loop of this glycoprotein. The antisera used were rabbit antiserum to a synthetic peptide corresponding to the V3 hypervariable loop of HIV-1 clone BH10, serum of a chimpanzee immunized with V3 hypervariable loop peptides of distinct HIV-1 isolates and monoclonal antibodies (McAb NEA 9305) raised against residues (315-329) of the V3 hypervariable loop of HIV-1 BH10 (Neurath et al (1990), Molec. Immunol., 27, 539-549).
FIG. 9 is a bar graph depicting the inhibitory effect of deuteroporphyrin IX,2-vinyl,4-hydroxymethyl (60 μg/ml) and metal chelates thereof on the reaction between HIV-1 IIIB glycoprotein gp120 and three distinct antibodies reacting with the V3 hypervarible loop of this glycoprotein. The antisera used were rabbit antiserum to a synthetic peptide corresponding to the V3 hypervariable loop of HIV-1 clone BH10, serum of a chimpanzee immunized with V3 hypervariable loop peptides of distinct HIV-1 isolates and monoclonal antibodies (McAb NEA 9305) raised against a synthetic peptide corresponding to residues (315-329) of the V3 hypervariable loop of HIV-1 BH10 (Neurath et al (1990), Molec. Immunol 27, 539-549).
as §1, with “FIG. 10” for “FIG. 8”, “of meso-tetra (4-carboxyphenyl)porphine” for “of chlorine6”, “against a synthetic peptide corresponding to” for “against”, “HIV-1 BH10.” for “HIV-1 BH10”
as §1, with “FIG. 11” for “FIG. 8”, “of uroporphyrin III” for “of chlorine6”, “against a synthetic peptide corresponding to” for “against”, “et al,” for “et al”, “Molec. lmmunol.,” for “Molec. Immunol.,”, “27, 539-549)” for “27, 539-549).”
Monoclonal antibodies (McAbs) recognizing the V3 hypervariable loop of HIV-1 BH 10 (McAb 9305 from DuPont, Wilmington, Del.) and an antiserum from a chimpanzee immunized with a mixture of V3 hypervariable loop peptides from 21 distinct HIV1 isolates (Girard, M., Kieny, M-P., Pinter, A., Barre-Sinoussi, F., Nara, P., Kolbe, H., Kusumi, K., Chaput, A., Reinhart, T., Muchmore, E, Ronco, J., Kaczorek, M., Gomard, E, Gluckman, JC., Fultz, P. N. (1991), "Immunization of Chimpanzees Confers Protection Against Challenge with Human Immunodeficiency Virus", Proc. Natl. Acad. Sci. USA, 88, 542-546) were also used for studies on the inhibitory affect of ATA on the reaction between these antibodies and gp120, using ELISA tests. These tests were carried out similarly as RIA, except that sodium merthiolate (1 mg/ml) was added to the buffers instead of NaN3, and goat antimouse IgG antibodies (Boehringer Mannheim Biochemicals, Indianapolis, Ind.) and goat anti-human IgG antibodies (Sigma, St. Louis, Mo.), respectively, each linked to horseradish peroxidase were used as second antibodies at final dilutions of 1:1,000 in phosphate-buffered saline (PBS) containing 10% goat serum and 0.1% Tween 20. […]

For `O=C(O)C1=CC(=C(c2ccc(O)c(C(=O)O)c2)c2ccc(O)c(C(=O)O)c2)C=CC1=O` [substance #122, aurintricarboxylic acid], the “binding of ATA to control peptide (anti-ATA antibodies)” value in test [1] was “not with gelatin or a control peptide (518-542)”.
`C=Cc1c(C)c2cc3nc(c(CC(=O)O)c4[nH]c(cc5nc(cc1[nH]2)C(C)=C5CC)c(C)c4C(=O)O)[C@@H](CCC(=O)O)[C@@H]3C` [substance #149, chlorine e6]: the “inhibitory activity on the interaction between the V3 hypervariable loop of HIV-1-IIIB and antisera” value in test [2] is given as “considerable inhibitory activity”.
